Here are results for 23 molecules from PubChem BioAssay AID330 (DTP/NCI, 2004).

Structures are written as SMILES. “And” between values parts separate entries of the source, which are not always exact repeats. Equal values may be shown once. Toxic doses and inconclusive results are not listed.

The test system of this assay is P388 leukemia ip, CD2F1 mice, survival T/C. The assay can be described thus: NCI In Vivo Anticancer Drug Screen. Data for tumor model P388 Leukemia (intraperitoneal) in CD2F1 (CDF1) mice. The conditions noted are these: endpoint: median survival time, higher = longer survival. The procedure, abridged: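 Mice carrying the transplanted tumor received test compound or vehicle. Survival was recorded in each group, and the value is the treated-group measurement divided by that of the vehicle-treated control group.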

Where [1] appears, read: dose: 50.0 mg/kg/injection, schedule: Q01DX009 (ip), vehicle: Klucel (hydroxypropylcellulose) (HPC).
The mark [2] stands for this setting: dose: 100.0 mg/kg/injection, schedule: Q01DX009 (ip), vehicle: Klucel (hydroxypropylcellulose) (HPC).
[3] abbreviates: dose: 200.0 mg/kg/injection, schedule: Q01DX009 (ip), vehicle: Klucel (hydroxypropylcellulose) (HPC).
Setting [4] is: dose: 50.0 mg/kg/injection, schedule: Q01DX005 (ip), vehicle: saline with Tween-80.
[5] abbreviates: dose: 100.0 mg/kg/injection, schedule: Q01DX005 (ip), vehicle: saline with Tween-80.
[6] abbreviates: dose: 200.0 mg/kg/injection, schedule: Q01DX005 (ip), vehicle: saline with Tween-80.
Where [7] appears, read: dose: 50.0 mg/kg/injection, schedule: Q01DX005 (ip), vehicle: Klucel (hydroxypropylcellulose) (HPC).
[8] abbreviates: dose: 100.0 mg/kg/injection, schedule: Q01DX005 (ip), vehicle: Klucel (hydroxypropylcellulose) (HPC).
The mark [9] stands for this setting: dose: 200.0 mg/kg/injection, schedule: Q01DX005 (ip), vehicle: Klucel (hydroxypropylcellulose) (HPC).
The mark [10] stands for this setting: dose: 50.0 mg/kg/injection, schedule: Q01DX009 (ip), vehicle: saline.
The mark [11] stands for this setting: dose: 100.0 mg/kg/injection, schedule: Q01DX009 (ip), vehicle: saline.
Where [12] appears, read: dose: 25.0 mg/kg/injection, schedule: Q01DX005 (ip), vehicle: saline.
[13] abbreviates: dose: 25.0 mg/kg/injection, schedule: Q01DX005 (ip), vehicle: saline with Tween-80.

In the case of `COC(C#N)c1ccccc1` (stereo not drawn), the T/C reads like this: (dose: 6.25 mg/kg/injection, schedule: Q04DX003 (ip), vehicle: saline with Tween-80) 100 % of control; (dose: 12.5 mg/kg/injection, schedule: Q04DX003 (ip), vehicle: saline with Tween-80) 100 % of control; (dose: 25.0 mg/kg/injection, schedule: Q04DX003 (ip), vehicle: saline with Tween-80) 108 % of control and 115 % of control and 91 % of control; (dose: 25.0 mg/kg/injection, schedule: Q04DX003 (ip), vehicle: saline) 98 % of control.
Take `CSc1nnc2sc3cc(C)ccc3n12`: the T/C by setting is: under setting [1], 102 % of control; under setting [2], 103 % of control; under setting [3], 102 % of control.
Turning to `CC(CC(=O)c1ccccc1)=Nc1ccccc1`, the T/C (dose: 100.0 mg/kg/injection, schedule: Q01DX001 (ip), vehicle: saline sonified) is 110 % of control; the T/C (dose: 200.0 mg/kg/injection, schedule: Q01DX001 (ip), vehicle: saline sonified) is 100 % of control; the T/C (dose: 400.0 mg/kg/injection, schedule: Q01DX001 (ip), vehicle: saline sonified) is 100 % of control.
In the case of `Cc1cc(=O)c2c(ccc3cc4ccccc4cc32)[nH]1`, the T/C under setting [4] is 98 % of control, the T/C under setting [5] is 98 % of control and the T/C under setting [6] was 97 % of control.
With `C=C1C2CCC3C(CCC4C5(C)CCCC43C3OCCN3C5)(C2)C1OC(C)=O` (stereo not drawn), the T/C is 100 % of control (dose: 12.0 mg/kg/injection, schedule: Q01DX009 (ip), vehicle: Klucel (hydroxypropylcellulose) (HPC)); 96 % of control (dose: 24.0 mg/kg/injection, schedule: Q01DX009 (ip), vehicle: Klucel (hydroxypropylcellulose) (HPC)); 91 % of control (dose: 48.0 mg/kg/injection, schedule: Q01DX009 (ip), vehicle: Klucel (hydroxypropylcellulose) (HPC)).
For `N#C/C(=C/c1ccco1)c1ccccc1`, the T/C was 95 % of control (dose: 12.5 mg/kg/injection, schedule: Q01DX009 (ip), vehicle: Klucel (hydroxypropylcellulose) (HPC)) and 88 % of control (dose: 25.0 mg/kg/injection, schedule: Q01DX009 (ip), vehicle: Klucel (hydroxypropylcellulose) (HPC)).
Turning to `CCCCCCCCCCCCCCCCC/C=C1\CC(=O)OC1=O`, the T/C is, setting by setting: (dose: 25.0 mg/kg/injection, schedule: Q01DX009 (ip), vehicle: saline with Tween-80) 103 % of control; (dose: 50.0 mg/kg/injection, schedule: Q01DX009 (ip), vehicle: saline with Tween-80) 97 % of control; (dose: 100.0 mg/kg/injection, schedule: Q01DX009 (ip), vehicle: saline with Tween-80) 89 % of control.
Consider `C[Si](C)(C)CC[Si]12OCCN(CCO1)C1CCCCC1O2` (stereo not drawn), for which the T/C under setting [7] is 93 % of control, the T/C under setting [8] was 101 % of control and the T/C under setting [9] was 97 % of control.
Turning to `COc1ccc2c(c1)C(c1cccc3ccccc13)OC2` (stereo not drawn), the T/C is 100 % of control (dose: 12.5 mg/kg/injection, schedule: Q01DX005 (ip), vehicle: Klucel (hydroxypropylcellulose) (HPC)); 88 % of control (dose: 25.0 mg/kg/injection, schedule: Q01DX005 (ip), vehicle: Klucel (hydroxypropylcellulose) (HPC)); 86 % of control and 91 % of control under setting [7].
For the molecule `CC(=O)NS(=O)(=O)c1ccc(N=Nc2c(O)n(-c3ccccc3)n(-c3ccccc3)c2=O)cc1`, the T/C was 88 % of control under setting [1], 101 % of control under setting [2] and 109 % of control under setting [3].
For `C[C@]12CC[C@@H]3c4ccc(O)cc4CC[C@H]3[C@@H]1C[C@@H](O)[C@@H]2O`, the T/C is 112 % of control under setting [10]; 100 % of control under setting [11]; 100 % of control (dose: 200.0 mg/kg/injection, schedule: Q01DX009 (ip), vehicle: saline); 91 % of control (dose: 400.0 mg/kg/injection, schedule: Q01DX009 (ip), vehicle: saline).
Consider `C=CC[S+]1CCSC1C(=O)OCC` (stereo not drawn), for which the T/C (dose: 100.0 mg/kg/injection, schedule: Q01DX001 (ip), vehicle: saline) was 95 % of control; the T/C (dose: 200.0 mg/kg/injection, schedule: Q01DX001 (ip), vehicle: saline) was 112 % of control; the T/C (dose: 400.0 mg/kg/injection, schedule: Q01DX001 (ip), vehicle: saline) was 91 % of control.
Regarding `CN(C)[C@@H]1C(=O)C(C(=O)NCNC(CO)(CO)CO)=C(O)[C@@]2(O)C(=O)C3=C(O)c4c(O)cccc4[C@@](C)(O)[C@H]3C[C@@H]12`, the T/C is, setting by setting: (dose: 25.0 mg/kg/injection, schedule: Q01DX009 (ip), vehicle: saline) 100 % of control; under setting [10], 95 % of control; under setting [11], 100 % of control.
Turning to `CCCCCN(CCCCC)CCCNc1c2c(nc3ccc(Cl)cc13)CCCC2`, the T/C reads like this: (dose: 12.5 mg/kg/injection, schedule: Q01DX005 (ip), vehicle: saline) 95 % of control; under setting [12], 104 % of control; (dose: 50.0 mg/kg/injection, schedule: Q01DX005 (ip), vehicle: saline) 104 % of control and 107 % of control.
For the molecule `CCOC(=O)COc1cc2c(cc1C(C)c1ccc(OC)c(OC)c1)OCO2` (stereo not drawn), the T/C is, setting by setting: (dose: 50.0 mg/kg/injection, schedule: Q01DX005 (ip), vehicle: distilled water + Tween-80) 90 % of control; (dose: 100.0 mg/kg/injection, schedule: Q01DX005 (ip), vehicle: distilled water + Tween-80) 91 % of control; (dose: 200.0 mg/kg/injection, schedule: Q01DX005 (ip), vehicle: distilled water + Tween-80) 86 % of control.
On to `O=[N+]([O-])c1ccc(N=Nc2ccc(O)cc2O)cc1`, for which the T/C is 100 % of control (dose: 100.0 mg/kg/injection, schedule: Q04DX003 (ip), vehicle: saline); 114 % of control (dose: 200.0 mg/kg/injection, schedule: Q04DX003 (ip), vehicle: saline); 115 % of control (dose: 400.0 mg/kg/injection, schedule: Q04DX003 (ip), vehicle: saline).
As to `C=CC(C)(C)c1c2c(c(OC)c3ccc(=O)oc13)C=CC(C)(C)O2`, the T/C was 105 % of control under setting [13]; 99 % of control and 94 % of control under setting [4]; 96 % of control under setting [5].
Take `O=C(NCCCCCCNC(=O)C1CCCN1C(=O)OCc1ccccc1)C1CCCN1C(=O)OCc1ccccc1` (stereo not drawn): the T/C reads like this: (dose: 60.0 mg/kg/injection, schedule: Q01DX005 (ip), vehicle: Klucel (hydroxypropylcellulose) (HPC)) 100 % of control; (dose: 120.0 mg/kg/injection, schedule: Q01DX005 (ip), vehicle: Klucel (hydroxypropylcellulose) (HPC)) 98 % of control; (dose: 240.0 mg/kg/injection, schedule: Q01DX005 (ip), vehicle: Klucel (hydroxypropylcellulose) (HPC)) 100 % of control.
In the case of `COC(=O)C(NC(N)=O)SC` (stereo not drawn), the T/C runs as follows: (dose: 50.0 mg/kg/injection, schedule: Q04DX003 (ip), vehicle: saline with Tween-80) 96 % of control; (dose: 100.0 mg/kg/injection, schedule: Q04DX003 (ip), vehicle: saline with Tween-80) 100 % of control; (dose: 200.0 mg/kg/injection, schedule: Q04DX003 (ip), vehicle: saline with Tween-80) 99 % of control.
For `Cn1nnc2c(C(N)=O)ncn2c1=O`, the T/C was 118 % of control under setting [13]; 119 % of control and 121 % of control under setting [12]; 189 % of control under setting [5]; 164 % of control and 217 % of control (dose: 100.0 mg/kg/injection, schedule: Q01DX005 (ip), vehicle: saline); 254 % of control under setting [6]; 225 % of control and 87 % of control (dose: 200.0 mg/kg/injection, schedule: Q01DX005 (ip), vehicle: saline).
With `CN1CCCC2c3ccccc3CCC21` (stereo not drawn), the T/C is 104 % of control (dose: 12.5 mg/kg/injection, schedule: Q04DX003 (ip), vehicle: Klucel (hydroxypropylcellulose) (HPC)) and 101 % of control (dose: 25.0 mg/kg/injection, schedule: Q04DX003 (ip), vehicle: Klucel (hydroxypropylcellulose) (HPC)).
`NCCn1c(-c2ccccc2)nc2ccccc2c1=O`: the T/C under setting [7] is 100 % of control, the T/C under setting [8] was 97 % of control and the T/C under setting [9] is 109 % of control.
`COc1cc(O)c2c(=O)c3c(O)c(OC4OC(COC5OC(C)C(OC(C)=O)C(O)C5O)C(O)C(O)C4O)ccc3oc2c1` (stereo not drawn): the T/C is, setting by setting: (dose: 1.5 mg/kg/injection, schedule: Q01DX009 (ip), vehicle: saline) 100 % of control; (dose: 3.0 mg/kg/injection, schedule: Q01DX009 (ip), vehicle: saline) 100 % of control; (dose: 6.0 mg/kg/injection, schedule: Q01DX009 (ip), vehicle: saline) 107 % of control; (dose: 12.0 mg/kg/injection, schedule: Q01DX009 (ip), vehicle: saline) 103 % of control.
